For the assay, the system named is CD1b-restricted MA-specific TCR transgenic DN1 T cells. It is filed as cell-based, mouse.

Take mycolic acid [MA]: the “IFN-γ production by DN1 T cells to MA-pulsed DC (ELISPOT)” value is reported as “produced IFN-γ” and the “activation of DN1 T cells (CD69, CD25, IFN-γ)” value is recorded as “able to activate DN1 T cells”.

For the origin of these results see US12194084B2 (priority 2019, dated 2025).
